Results on two compounds are retold here after ChEMBL document CHEMBL2074451, “ATP- and glutathione-dependent transport of chemotherapeutic drugs by the multidrug resistance protein MRP1” (Br J Pharmacol, 1999).

The target in data set [1] is ATP-dependent translocase ABCB1 (Homo sapiens, UniProt P08183). The experiment in a line: TP_TRANSPORTER: uptake in A2780 and A2780AD cells. It is filed as functional, cell-based.
Data set [2] addresses Multidrug resistance-associated protein 1 (Homo sapiens, UniProt P33527). The experiment in a line: TP_TRANSPORTER: uptake in membrane vesicles from GLC4/ADR cells. It is filed as functional, cell membranes, Membrane vesicle. The settings on record: glc-4/adr.

ATP-dependent translocase ABCB1, sequence (P08183 whole entry): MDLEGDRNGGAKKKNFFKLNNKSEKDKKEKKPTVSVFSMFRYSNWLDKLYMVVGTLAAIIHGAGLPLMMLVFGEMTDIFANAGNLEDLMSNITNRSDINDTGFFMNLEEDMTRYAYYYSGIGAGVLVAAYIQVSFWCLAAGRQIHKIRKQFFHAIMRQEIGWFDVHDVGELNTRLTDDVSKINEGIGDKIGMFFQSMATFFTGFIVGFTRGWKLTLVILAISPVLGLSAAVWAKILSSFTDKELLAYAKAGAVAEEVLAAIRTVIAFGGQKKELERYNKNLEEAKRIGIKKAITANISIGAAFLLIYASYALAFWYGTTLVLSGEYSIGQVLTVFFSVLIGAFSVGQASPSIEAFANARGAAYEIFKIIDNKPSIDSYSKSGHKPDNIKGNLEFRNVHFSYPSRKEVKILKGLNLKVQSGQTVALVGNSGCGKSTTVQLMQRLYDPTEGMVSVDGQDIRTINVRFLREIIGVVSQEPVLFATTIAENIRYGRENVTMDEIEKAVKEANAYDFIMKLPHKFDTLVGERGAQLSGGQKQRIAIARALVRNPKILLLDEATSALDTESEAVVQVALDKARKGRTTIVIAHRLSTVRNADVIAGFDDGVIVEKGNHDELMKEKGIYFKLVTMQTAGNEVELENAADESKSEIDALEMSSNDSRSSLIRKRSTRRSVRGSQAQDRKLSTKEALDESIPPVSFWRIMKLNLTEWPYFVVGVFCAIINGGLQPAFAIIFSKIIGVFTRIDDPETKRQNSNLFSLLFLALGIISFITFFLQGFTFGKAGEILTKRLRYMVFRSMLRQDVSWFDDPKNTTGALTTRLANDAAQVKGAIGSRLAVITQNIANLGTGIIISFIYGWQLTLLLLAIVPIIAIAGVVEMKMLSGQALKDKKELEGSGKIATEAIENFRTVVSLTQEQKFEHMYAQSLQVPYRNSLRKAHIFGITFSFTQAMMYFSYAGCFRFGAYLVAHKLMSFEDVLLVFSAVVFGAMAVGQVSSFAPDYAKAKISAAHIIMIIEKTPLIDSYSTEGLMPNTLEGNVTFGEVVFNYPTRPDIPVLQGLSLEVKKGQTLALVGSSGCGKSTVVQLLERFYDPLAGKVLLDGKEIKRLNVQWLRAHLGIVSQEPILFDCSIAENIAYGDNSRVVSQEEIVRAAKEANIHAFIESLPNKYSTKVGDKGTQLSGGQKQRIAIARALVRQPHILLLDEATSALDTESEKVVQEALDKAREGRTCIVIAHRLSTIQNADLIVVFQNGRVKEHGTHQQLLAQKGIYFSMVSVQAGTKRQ
Multidrug resistance-associated protein 1, sequence (P33527 whole entry): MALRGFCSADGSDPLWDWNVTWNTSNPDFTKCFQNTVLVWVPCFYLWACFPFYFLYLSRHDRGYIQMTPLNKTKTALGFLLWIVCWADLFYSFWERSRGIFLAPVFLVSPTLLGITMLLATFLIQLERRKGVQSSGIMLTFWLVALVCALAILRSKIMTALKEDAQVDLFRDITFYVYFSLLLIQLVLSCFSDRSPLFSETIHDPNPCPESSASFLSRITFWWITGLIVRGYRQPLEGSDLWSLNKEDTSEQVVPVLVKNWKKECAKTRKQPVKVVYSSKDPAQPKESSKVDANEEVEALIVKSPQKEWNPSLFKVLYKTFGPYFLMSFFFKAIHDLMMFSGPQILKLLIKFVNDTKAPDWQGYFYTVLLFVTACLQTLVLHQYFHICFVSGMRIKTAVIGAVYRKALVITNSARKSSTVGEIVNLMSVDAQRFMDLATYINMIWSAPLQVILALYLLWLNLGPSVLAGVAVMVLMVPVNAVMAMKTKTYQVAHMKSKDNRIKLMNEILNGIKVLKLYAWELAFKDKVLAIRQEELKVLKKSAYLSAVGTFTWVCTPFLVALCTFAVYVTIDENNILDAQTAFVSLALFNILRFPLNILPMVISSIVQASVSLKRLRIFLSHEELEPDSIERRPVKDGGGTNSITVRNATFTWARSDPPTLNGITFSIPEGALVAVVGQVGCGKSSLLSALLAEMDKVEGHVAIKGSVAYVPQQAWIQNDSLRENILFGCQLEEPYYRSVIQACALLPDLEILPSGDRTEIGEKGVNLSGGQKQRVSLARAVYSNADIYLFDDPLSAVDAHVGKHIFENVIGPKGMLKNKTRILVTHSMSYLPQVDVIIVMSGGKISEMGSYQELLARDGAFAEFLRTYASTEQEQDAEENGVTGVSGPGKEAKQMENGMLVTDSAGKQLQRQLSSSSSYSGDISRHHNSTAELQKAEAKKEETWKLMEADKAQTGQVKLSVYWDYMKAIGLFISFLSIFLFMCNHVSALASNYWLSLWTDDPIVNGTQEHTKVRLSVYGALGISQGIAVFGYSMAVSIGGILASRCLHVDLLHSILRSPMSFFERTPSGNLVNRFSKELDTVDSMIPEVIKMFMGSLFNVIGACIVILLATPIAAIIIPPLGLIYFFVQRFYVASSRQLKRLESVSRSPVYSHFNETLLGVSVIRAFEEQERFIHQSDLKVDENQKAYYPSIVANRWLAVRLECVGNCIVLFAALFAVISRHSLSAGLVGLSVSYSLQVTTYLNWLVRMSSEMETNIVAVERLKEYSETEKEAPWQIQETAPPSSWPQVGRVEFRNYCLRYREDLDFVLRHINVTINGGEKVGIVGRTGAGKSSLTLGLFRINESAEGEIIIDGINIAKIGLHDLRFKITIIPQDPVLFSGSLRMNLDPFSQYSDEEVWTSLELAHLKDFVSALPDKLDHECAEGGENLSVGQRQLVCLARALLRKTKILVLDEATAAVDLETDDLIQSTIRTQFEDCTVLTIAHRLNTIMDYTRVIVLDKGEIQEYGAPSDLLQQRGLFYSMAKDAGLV

Take `CCC1C[N+]2(CCCC3(C)N=N3)C3CC45c6ccccc6N(C)C4C2CC1C3C5O` (configuration not stated): in data set [1], the Activity entry was “substrate [+]”. As to `CC[C@]1(O)C[C@H]2CN(CCc3c([nH]c4ccccc34)[C@@](C(=O)OC)(c3cc4c(cc3OC)N(C=O)[C@H]3[C@@](O)(C(=O)OC)[C@H](OC(C)=O)[C@]5(CC)C=CCN6CC[C@]43[C@@H]65)C2)C1` [VINCRISTINE], the Activity result in data set [2] is “substrate [+]”.
